Where “and” joins values, the source holds several entries; their conditions need not be identical. Identical values can stand only once.
Test system: TLR signalling pathway genes
Assay: Toll-like Receptor Pathway PCR array of ankles
Assay type: in vivo, C57BL/6 mice
Settings: for S40/SIA (fold change) / log2(fold change) S40/SIA: S40 group vs SIA group
Method: Total RNA was isolated from the right ankles using the TRIzol Reagent (Invitrogen) and purified with RNeasy Mini Kit and RNase-Free DNase Set (Qiagen). RNA quality was determined using a spectrophotometer and was reversely transcribed using Wcgene® mRNA cDNA kit. The complementary DNA was used on the Toll-like Receptor Pathway PCR Array plate (Wcgene® biotech, China).

Compound: C=C1C(OC(=O)c2ccccc2)CC2C(C=C(C)C(=O)C3(OC(C)=O)CC(C)C(OC(=O)c4ccccc4)C3C1OC(C)=O)C2(C)C (stereo not shown) [EFL2, Euphorbia factor L2]
- fold-GAPDH, ACTB (ACTB mRNA relative to GAPDH (内参-GAPDH), individual mice of EFL2 group (S401, S402, S404, S405 = EFL2-1 to -4)): 1.058 and 1.072 and 0.8044
- fold-GAPDH, B2M (B2M mRNA relative to GAPDH, individual mice of EFL2 group (S401, S402, S404, S405)): 0.312 and 0.4388 and 0.3402 and 0.1942
- fold-GAPDH, Becn1 (Becn1 mRNA relative to GAPDH, individual mice of EFL2 group (S401, S402, S404, S405)): 0.001891 and 0.007192 and 0.004096
- S40/SIA (fold change) (Becn1 mRNA): 0.2727
- log2(fold change) S40/SIA (Becn1 mRNA): -1.875
- fold-GAPDH, Btk (Btk mRNA relative to GAPDH, individual mice of EFL2 group (S401, S402, S404, S405)): 0.002403 and 0.001831 and 0.004678 and 0.001063
- S40/SIA (fold change) (Btk mRNA): 0.3155
- log2(fold change) S40/SIA (Btk mRNA): -1.664
- fold-GAPDH, Casp8 (Casp8 mRNA relative to GAPDH, individual mice of EFL2 group (S401, S402, S404, S405)): 0.01634 and 0.01358 and 0.009475
- S40/SIA (fold change) (Casp8 mRNA): 0.2393
- log2(fold change) S40/SIA (Casp8 mRNA): -2.063
- fold-GAPDH, Ccl2 (Ccl2 mRNA relative to GAPDH, individual mice of EFL2 group (S401, S402, S404, S405)): 0.01529 and 0.00629 and 0.0002036
- S40/SIA (fold change) (Ccl2 mRNA): 0.0326
- log2(fold change) S40/SIA (Ccl2 mRNA): -4.939
- fold-GAPDH, Ccl11 (Ccl11 mRNA relative to GAPDH, individual mice of EFL2 group (S401, S402, S404, S405)): 0.01036 and 0.008836 and 0.01327 and 0.005579
- S40/SIA (fold change) (Ccl11 mRNA): 1.864
- log2(fold change) S40/SIA (Ccl11 mRNA): 0.8985
- fold-GAPDH, Ccl20 (Ccl20 mRNA relative to GAPDH, individual mice of EFL2 group (S401, S402, S404, S405)): 3.719e-5 and 0.0001299
- fold-GAPDH, Cd14 (Cd14 mRNA relative to GAPDH, individual mice of EFL2 group (S401, S402, S404, S405)): 0.005751 and 0.00806 and 0.003038 and 0.001749
- fold-GAPDH, Cd80 (Cd80 mRNA relative to GAPDH, individual mice of EFL2 group (S401, S402, S404, S405)): 0.002341 and 0.005041 and 0.0008698
- fold-GAPDH, Cd86 (Cd86 mRNA relative to GAPDH, individual mice of EFL2 group (S401, S402, S404, S405)): 0.0007215 and 0.0005777 and 0.0007714 and 0.0003428
- S40/SIA (fold change) (Cd86 mRNA): 0.1925
- log2(fold change) S40/SIA (Cd86 mRNA): -2.3771
- fold-GAPDH, Chuk (Chuk mRNA relative to GAPDH, individual mice of EFL2 group (S401, S402, S404, S405)): 0.008767 and 0.01087 and 0.008829
- S40/SIA (fold change) (Chuk mRNA): 0.3313
- log2(fold change) S40/SIA (Chuk mRNA): -1.594
- fold-GAPDH, Clec4e (Clec4e mRNA relative to GAPDH, individual mice of EFL2 group (S401, S402, S404, S405)): 0.0002637 and 0.002249 and 0.0004993 and 4.1493e-5
- S40/SIA (fold change) (Clec4e mRNA): 0.0859
- log2(fold change) S40/SIA (Clec4e mRNA): -3.541
- fold-GAPDH, Cxcl10 (Cxcl10 mRNA relative to GAPDH, individual mice of EFL2 group (S401, S402, S404, S405)): 2.1064e-5
- S40/SIA (fold change) (Cxcl10 mRNA): 0.002337
- log2(fold change) S40/SIA (Cxcl10 mRNA): -8.741
- fold-GAPDH, Eif2ak2 (Eif2ak2 mRNA relative to GAPDH, individual mice of EFL2 group (S401, S402, S404, S405)): 0.004437 and 0.00565 and 0.003196
- fold-GAPDH, Elk1 (Elk1 mRNA relative to GAPDH, individual mice of EFL2 group (S401, S402, S404, S405)): 0.006009 and 0.005652 and 0.006734 and 0.002589
- S40/SIA (fold change) (Elk1 mRNA): 0.3565
- log2(fold change) S40/SIA (Elk1 mRNA): -1.488
- fold-GAPDH, Fadd (Fadd mRNA relative to GAPDH, individual mice of EFL2 group (S401, S402, S404, S405)): 0.001977 and 0.0009207 and 0.00158 and 0.0009332
- S40/SIA (fold change) (Fadd mRNA): 0.1995
- log2(fold change) S40/SIA (Fadd mRNA): -2.325
- fold-GAPDH, Fos (Fos mRNA relative to GAPDH, individual mice of EFL2 group (S401, S402, S404, S405)): 0.02349 and 0.0137 and 0.0143 and 0.009915
- fold-GAPDH, HPRT1 (HPRT1 mRNA relative to GAPDH, individual mice of EFL2 group (S401, S402, S404, S405)): 0.01241 and 0.008273 and 0.01631
- fold-GAPDH, Hmgb1 (Hmgb1 mRNA relative to GAPDH, individual mice of EFL2 group (S401, S402, S404, S405)): 0.3089 and 0.3274 and 0.2681 and 0.1726
- fold-GAPDH, Hras1 (Hras1 mRNA relative to GAPDH, individual mice of EFL2 group (S401, S402, S404, S405)): 0.02419 and 0.02746 and 0.02268 and 0.01475
- S40/SIA (fold change) (Hras1 mRNA): 0.4915
- log2(fold change) S40/SIA (Hras1 mRNA): -1.025
- fold-GAPDH, Hspa1a (Hspa1a mRNA relative to GAPDH, individual mice of EFL2 group (S401, S402, S404, S405)): 0.03203 and 0.003543 and 0.006228
- fold-GAPDH, Hspd1 (Hspd1 mRNA relative to GAPDH, individual mice of EFL2 group (S401, S402, S404, S405)): 0.02796 and 0.02518 and 0.003019 and 0.01313
- S40/SIA (fold change) (Hspd1 mRNA): 0.2339
- log2(fold change) S40/SIA (Hspd1 mRNA): -2.096
- fold-GAPDH, IRF5 (IRF5 mRNA in ankles of STA mice, relative to GAPDH, one value per animal (samples S401-S405)): 0.004631 and 0.004692 and 0.004033 and 0.001353
- S40/SIA (fold change) (IRF5 mRNA): 0.3677
- log2(fold change) S40/SIA (IRF5 mRNA): -1.443
- fold-GAPDH, Ikbkb (Ikbkb mRNA relative to GAPDH, individual mice of EFL2 group (S401, S402, S404, S405)): 0.009029 and 0.01266 and 0.01025 and 0.004561
- fold-GAPDH, Il1a (Il1a mRNA relative to GAPDH, individual mice of EFL2 group (S401, S402, S404, S405)): 0.0002392 and 0.0002831 and 9.48e-5
- fold-GAPDH, Il1b (Il1b mRNA relative to GAPDH, individual mice of EFL2 group (S401, S402, S404, S405)): 0.005996 and 0.0009616 and 0.0008 and 0.0006699
- S40/SIA (fold change) (Il1b mRNA): 0.0229
- log2(fold change) S40/SIA (Il1b mRNA): -5.448
- fold-GAPDH, Il6 (Il6 mRNA relative to GAPDH, individual mice of EFL2 group (S401, S402, S404, S405)): 0.002971 and 0.0008677 and 0.0003997 and 0.0006556
- S40/SIA (fold change) (Il6 mRNA): 0.03478
- log2(fold change) S40/SIA (Il6 mRNA): -4.845
- fold-GAPDH, Il6ra (Il6ra mRNA in ankles of STA mice, relative to GAPDH, one value per animal (samples S401-S405)): 0.009397 and 0.01121 and 0.004741
- fold-GAPDH, Il10 (Il10 mRNA relative to GAPDH, individual mice of EFL2 group (S401, S402, S404, S405)): 0.0001425 and 0.0002257 and 7.048e-5 and 9.932e-5
- S40/SIA (fold change) (Il10 mRNA): 0.2443
- log2(fold change) S40/SIA (Il10 mRNA): -2.033
- fold-GAPDH, Il12a (Il12a mRNA relative to GAPDH, individual mice of EFL2 group (S401, S402, S404, S405)): 0.001377 and 0.0005874 and 0.0009712 and 0.0002213
- fold-GAPDH, Ilr1 (Ilr1 mRNA in ankles of STA mice, relative to GAPDH, one value per animal (samples S401-S405)): 0.01383 and 0.01561 and 0.01023 and 0.00774
- S40/SIA (fold change) (Ilr1 mRNA): 0.09556
- log2(fold change) S40/SIA (Ilr1 mRNA): -3.388
- fold-GAPDH, Irak1 (Irak1 mRNA in ankles of STA mice, relative to GAPDH, one value per animal (samples S401-S405)): 0.02263 and 0.02515 and 0.01545 and 0.008286
- fold-GAPDH, Irak2 (Irak2 mRNA in ankles of STA mice, relative to GAPDH, one value per animal (samples S401-S405)): 0.003024 and 0.004831 and 0.004355 and 0.002516

Source: PMC8691750, “Euphorbia Factor L2 ameliorates the Progression of K/BxN Serum-Induced Arthritis by Blocking TLR7 Mediated IRAK4/IKKβ/IRF5 and NF-kB Signaling Pathways” (Frontiers in Pharmacology, 2021)
